One block for each compound: values may come before it.
Key:
[1] = molecular target: Histone-lysine N-methyltransferase PRDM9 (Homo sapiens) (UniProt Q9NQV7); assay: Selectivity interaction (Methyltransferase screen (radiometric assays, panel of 8 PRMTs, 21 protein lysine methyltransferases, 3 DNA methyltransferases, and one RNA methyltransferase)) EUB0000272b PRDM9
[2] = molecular target: Protein kinase C eta type (Homo sapiens) (UniProt P24723); assay: Selectivity interaction (SelectScreen profiling (Invitrogen)) EUB0000607a PRKCH; conditions: at 2 µM
Chain of Protein kinase C eta type (Homo sapiens) (P24723 whole entry): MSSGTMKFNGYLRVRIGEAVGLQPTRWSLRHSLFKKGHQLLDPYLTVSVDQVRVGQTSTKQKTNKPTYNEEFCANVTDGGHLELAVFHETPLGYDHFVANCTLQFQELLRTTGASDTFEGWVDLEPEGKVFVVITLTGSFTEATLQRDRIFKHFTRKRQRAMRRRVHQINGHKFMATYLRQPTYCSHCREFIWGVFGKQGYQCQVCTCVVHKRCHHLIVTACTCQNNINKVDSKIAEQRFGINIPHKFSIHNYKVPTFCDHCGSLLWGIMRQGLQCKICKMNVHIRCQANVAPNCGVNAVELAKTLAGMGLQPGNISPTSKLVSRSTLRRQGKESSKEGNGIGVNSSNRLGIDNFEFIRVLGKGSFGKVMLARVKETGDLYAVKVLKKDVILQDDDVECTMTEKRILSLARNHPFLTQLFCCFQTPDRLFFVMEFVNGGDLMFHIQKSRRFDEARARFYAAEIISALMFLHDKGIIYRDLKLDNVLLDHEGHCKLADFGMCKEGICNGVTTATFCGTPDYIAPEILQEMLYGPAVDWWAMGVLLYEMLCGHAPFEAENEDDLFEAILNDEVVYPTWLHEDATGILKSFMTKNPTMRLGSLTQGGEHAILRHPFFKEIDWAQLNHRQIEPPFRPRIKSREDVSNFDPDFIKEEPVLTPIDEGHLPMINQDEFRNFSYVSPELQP

[3] = molecular target: T1, Serine/threonine-protein kinase 4 (Homo sapiens) (UniProt Q13043); assay: Selectivity interaction (Kinase panel (Invitrogen)) EUB0000639a STK4; conditions: at 200 nM
T1 sequence (whole entry): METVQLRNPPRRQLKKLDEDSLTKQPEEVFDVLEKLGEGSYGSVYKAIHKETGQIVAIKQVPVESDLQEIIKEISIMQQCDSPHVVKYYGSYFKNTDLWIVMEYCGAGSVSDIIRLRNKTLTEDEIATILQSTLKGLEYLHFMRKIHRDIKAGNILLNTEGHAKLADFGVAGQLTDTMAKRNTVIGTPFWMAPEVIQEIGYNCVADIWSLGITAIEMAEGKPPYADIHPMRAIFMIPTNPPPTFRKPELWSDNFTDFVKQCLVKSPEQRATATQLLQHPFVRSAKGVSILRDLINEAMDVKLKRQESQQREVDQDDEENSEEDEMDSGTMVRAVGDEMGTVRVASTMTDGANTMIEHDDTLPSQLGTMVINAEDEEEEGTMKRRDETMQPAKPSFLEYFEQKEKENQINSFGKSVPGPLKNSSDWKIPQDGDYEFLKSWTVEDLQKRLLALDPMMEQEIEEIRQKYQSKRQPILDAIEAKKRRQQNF

[4] = molecular target: T2, SNF-related serine/threonine-protein kinase (Homo sapiens) (UniProt Q9NRH2); assay: Selectivity interaction (KinomeScan (DiscoverX)) EUB0000229b SNRK; conditions: at 10 µM
T2 sequence (whole entry): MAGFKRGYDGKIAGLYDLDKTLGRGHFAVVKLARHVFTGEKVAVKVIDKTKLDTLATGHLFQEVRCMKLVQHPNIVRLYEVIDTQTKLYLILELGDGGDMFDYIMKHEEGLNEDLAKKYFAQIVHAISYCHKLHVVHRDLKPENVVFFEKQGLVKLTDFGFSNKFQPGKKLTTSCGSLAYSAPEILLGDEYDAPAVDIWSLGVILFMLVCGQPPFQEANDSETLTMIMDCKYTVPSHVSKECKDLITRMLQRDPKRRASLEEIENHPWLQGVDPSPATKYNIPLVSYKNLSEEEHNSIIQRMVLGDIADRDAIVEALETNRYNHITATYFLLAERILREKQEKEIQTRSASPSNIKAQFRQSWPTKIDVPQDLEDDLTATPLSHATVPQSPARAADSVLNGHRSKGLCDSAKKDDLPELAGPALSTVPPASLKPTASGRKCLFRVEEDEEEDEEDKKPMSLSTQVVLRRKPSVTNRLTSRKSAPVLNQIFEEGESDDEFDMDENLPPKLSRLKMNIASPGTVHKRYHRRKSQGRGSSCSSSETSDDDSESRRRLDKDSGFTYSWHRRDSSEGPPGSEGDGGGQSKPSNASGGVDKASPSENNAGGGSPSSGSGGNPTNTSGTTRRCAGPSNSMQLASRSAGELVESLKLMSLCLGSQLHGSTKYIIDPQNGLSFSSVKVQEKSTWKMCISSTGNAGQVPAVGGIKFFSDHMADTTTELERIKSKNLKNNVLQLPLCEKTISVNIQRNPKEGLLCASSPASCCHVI

[5] = molecular target: T3, Phosphatidylinositol 3-kinase C2 domain-containing subunit gamma (Homo sapiens) (UniProt O75747); assay: Selectivity interaction (Adapta Assay) EUB0001632a PIK3C2G; conditions: at 10 µM
T3 sequence (whole entry): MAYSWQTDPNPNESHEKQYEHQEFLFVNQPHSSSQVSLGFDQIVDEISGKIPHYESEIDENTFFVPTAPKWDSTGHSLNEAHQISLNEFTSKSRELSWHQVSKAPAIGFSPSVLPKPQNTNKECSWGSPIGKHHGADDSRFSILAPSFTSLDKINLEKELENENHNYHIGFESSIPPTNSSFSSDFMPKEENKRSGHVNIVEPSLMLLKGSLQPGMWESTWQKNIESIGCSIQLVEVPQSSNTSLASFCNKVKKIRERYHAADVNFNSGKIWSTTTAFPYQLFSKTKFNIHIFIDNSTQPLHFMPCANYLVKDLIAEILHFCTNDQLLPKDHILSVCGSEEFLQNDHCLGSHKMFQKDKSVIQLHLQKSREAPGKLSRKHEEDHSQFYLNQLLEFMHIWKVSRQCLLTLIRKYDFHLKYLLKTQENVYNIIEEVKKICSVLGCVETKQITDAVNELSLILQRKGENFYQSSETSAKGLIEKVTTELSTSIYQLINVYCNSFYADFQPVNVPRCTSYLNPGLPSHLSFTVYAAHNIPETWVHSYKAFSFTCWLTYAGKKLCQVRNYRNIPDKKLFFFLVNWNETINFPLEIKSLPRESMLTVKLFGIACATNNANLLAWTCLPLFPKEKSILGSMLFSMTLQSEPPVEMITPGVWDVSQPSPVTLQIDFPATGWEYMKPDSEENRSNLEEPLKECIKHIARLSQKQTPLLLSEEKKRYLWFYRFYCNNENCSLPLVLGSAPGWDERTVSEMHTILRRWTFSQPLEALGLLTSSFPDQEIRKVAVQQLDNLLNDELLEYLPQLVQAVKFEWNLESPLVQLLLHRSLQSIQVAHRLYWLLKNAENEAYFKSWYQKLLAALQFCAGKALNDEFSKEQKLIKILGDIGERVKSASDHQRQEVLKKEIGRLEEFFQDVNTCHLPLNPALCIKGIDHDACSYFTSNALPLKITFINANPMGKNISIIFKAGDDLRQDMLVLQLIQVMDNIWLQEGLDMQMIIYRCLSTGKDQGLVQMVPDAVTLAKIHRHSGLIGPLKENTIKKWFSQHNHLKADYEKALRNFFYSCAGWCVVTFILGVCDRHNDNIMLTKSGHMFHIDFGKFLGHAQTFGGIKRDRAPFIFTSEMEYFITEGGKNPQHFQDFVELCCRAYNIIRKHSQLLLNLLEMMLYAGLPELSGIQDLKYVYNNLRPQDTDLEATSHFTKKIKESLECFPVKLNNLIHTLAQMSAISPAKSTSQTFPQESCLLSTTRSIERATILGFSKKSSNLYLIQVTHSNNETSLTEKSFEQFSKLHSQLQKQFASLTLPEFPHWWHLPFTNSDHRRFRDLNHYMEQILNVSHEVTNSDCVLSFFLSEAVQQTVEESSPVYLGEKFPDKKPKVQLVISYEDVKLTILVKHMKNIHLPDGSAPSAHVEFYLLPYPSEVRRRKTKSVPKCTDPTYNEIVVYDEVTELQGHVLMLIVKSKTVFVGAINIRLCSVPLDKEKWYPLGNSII

Chain of Histone-lysine N-methyltransferase PRDM9 (Homo sapiens) (Q9NQV7 whole entry): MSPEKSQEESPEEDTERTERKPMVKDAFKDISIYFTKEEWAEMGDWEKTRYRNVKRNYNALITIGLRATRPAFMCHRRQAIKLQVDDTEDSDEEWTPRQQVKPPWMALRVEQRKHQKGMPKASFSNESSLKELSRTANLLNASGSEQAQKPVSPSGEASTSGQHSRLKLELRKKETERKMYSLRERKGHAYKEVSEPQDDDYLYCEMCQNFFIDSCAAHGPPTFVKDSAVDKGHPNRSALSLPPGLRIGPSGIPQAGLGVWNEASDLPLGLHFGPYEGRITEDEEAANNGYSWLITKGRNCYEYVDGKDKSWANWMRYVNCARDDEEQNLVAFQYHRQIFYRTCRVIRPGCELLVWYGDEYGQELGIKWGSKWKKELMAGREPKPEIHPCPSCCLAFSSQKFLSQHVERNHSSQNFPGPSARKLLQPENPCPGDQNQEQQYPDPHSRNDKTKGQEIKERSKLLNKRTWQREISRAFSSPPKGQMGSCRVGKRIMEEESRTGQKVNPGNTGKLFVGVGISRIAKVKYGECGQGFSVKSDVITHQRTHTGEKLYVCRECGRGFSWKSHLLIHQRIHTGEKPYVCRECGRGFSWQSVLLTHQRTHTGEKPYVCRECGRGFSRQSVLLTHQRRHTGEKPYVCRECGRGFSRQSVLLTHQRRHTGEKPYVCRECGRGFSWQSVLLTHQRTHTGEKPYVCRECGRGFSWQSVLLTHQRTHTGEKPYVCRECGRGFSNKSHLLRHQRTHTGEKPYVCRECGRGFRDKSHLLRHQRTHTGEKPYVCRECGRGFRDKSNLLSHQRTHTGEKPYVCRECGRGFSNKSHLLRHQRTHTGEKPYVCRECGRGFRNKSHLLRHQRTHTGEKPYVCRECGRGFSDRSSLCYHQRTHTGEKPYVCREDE

% of activity ([1]; at 1 µM): 98.7%
% of activity ([1]; at 10 µM): 96.3%
Structure (SMILES): Cc1cc(C)cc([C@H]2c3cc(C)ccc3NC(=O)CN2C(=O)c2ccc(Br)s2)c1

Structure (SMILES): CNC(=O)Nc1ccc(-c2nc(N3CC4CCC(C3)O4)c3cnn(C4CCC5(CC4)OCCO5)c3n2)cc1
% of inhibition [2]: 14%

% of inhibition [3]: 13.8%
Structure (SMILES): CC[C@@H]1[C@H](F)C(=O)N[C@@H]1COc1nccc2cc(C(N)=O)c(OC)cc12 [ZIMLOVISERTIB]

Structure (SMILES): COc1cc(N(C)c2ccnc3ccc(C(F)(F)F)cc23)cc(OC)c1OC
% binding [4]: 53%

% of inhibition [5]: -0.366%
Structure (SMILES): Cn1cc(-n2cnc3c(NCc4nc5cc(Cl)c(Cl)cc5[nH]4)nc(N4CCOCC4)nc32)cn1

Reference: ChEMBL document CHEMBL5465560, “Selectivity Literature for EUbOPEN Chemogenomic Library” (2024)
